This note sets out measurements from ChEMBL document CHEMBL5291721, “A preclinical secondary pharmacology resource illuminates target-adverse drug reaction associations of marketed drugs” (Nat Commun, 2023).

Where only a bound is given, the exact number is not on record here.

For assay [1], the target named is T1, 5-hydroxytryptamine receptor 2A (Homo sapiens, UniProt P28223). Type of assay: functional, cell-based.
The target in assay [2] is T2, Type-1 angiotensin II receptor (Homo sapiens, UniProt P30556).
T2 sequence (P30556 whole entry): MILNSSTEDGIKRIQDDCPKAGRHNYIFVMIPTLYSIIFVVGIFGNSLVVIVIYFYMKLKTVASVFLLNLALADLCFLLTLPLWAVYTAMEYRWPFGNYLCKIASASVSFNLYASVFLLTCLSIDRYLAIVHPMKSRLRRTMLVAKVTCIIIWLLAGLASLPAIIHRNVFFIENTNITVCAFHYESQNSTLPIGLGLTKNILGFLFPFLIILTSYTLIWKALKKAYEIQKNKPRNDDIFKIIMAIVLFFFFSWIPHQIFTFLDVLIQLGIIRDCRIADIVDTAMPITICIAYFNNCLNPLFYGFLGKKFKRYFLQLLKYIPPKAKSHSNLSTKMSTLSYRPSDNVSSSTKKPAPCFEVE

Assay [3] concerns the target T3, Progesterone receptor (Homo sapiens, UniProt P06401).
T3 sequence (P06401 whole entry): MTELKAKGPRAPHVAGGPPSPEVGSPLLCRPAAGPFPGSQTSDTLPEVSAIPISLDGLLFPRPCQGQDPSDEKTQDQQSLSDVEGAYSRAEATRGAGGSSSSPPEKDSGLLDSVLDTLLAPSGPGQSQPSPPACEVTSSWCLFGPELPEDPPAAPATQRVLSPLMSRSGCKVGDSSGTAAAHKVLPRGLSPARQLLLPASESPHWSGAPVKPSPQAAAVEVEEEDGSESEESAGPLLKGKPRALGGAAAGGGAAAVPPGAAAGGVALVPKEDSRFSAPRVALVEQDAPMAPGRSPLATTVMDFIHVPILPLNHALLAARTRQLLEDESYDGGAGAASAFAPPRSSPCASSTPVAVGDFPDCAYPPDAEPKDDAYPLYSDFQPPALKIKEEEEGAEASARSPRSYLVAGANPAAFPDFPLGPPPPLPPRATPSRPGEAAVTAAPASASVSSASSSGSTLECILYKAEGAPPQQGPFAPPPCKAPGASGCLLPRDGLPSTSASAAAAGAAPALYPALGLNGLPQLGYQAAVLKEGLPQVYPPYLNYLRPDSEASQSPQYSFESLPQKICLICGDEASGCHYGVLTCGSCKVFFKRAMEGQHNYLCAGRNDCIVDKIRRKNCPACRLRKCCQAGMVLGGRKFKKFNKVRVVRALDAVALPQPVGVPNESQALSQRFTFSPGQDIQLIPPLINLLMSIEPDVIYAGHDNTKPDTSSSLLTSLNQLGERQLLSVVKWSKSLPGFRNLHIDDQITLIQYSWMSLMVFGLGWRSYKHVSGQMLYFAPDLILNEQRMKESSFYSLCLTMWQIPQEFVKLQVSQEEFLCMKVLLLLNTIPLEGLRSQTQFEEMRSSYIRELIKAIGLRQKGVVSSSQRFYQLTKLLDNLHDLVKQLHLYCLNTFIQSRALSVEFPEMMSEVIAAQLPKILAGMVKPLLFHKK
Type of assay: functional.

Assay [4] deals with T3, Progesterone receptor. Type of assay: functional. The source holds these as a separate data set.
For assay [5], the target named is T4, Adenosine receptor A3 (Homo sapiens, UniProt P0DMS8).
T4 sequence (P0DMS8 whole entry): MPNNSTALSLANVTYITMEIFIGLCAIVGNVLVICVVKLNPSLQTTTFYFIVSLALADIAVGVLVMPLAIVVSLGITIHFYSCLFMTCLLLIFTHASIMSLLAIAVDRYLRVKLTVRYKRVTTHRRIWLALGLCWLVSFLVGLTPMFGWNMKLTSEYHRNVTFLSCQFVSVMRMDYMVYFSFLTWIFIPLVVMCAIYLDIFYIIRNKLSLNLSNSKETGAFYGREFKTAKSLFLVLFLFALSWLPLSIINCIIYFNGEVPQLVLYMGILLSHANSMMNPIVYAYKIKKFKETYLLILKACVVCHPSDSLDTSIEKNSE

The target in assay [6] is T1, 5-hydroxytryptamine receptor 2A. In kind it is functional, cell-based. This is another data set of the same source.
In assay [7] the target is T5, Prostaglandin G/H synthase 1 (Rattus norvegicus, UniProt Q63921).
T5 sequence (Q63921 whole entry): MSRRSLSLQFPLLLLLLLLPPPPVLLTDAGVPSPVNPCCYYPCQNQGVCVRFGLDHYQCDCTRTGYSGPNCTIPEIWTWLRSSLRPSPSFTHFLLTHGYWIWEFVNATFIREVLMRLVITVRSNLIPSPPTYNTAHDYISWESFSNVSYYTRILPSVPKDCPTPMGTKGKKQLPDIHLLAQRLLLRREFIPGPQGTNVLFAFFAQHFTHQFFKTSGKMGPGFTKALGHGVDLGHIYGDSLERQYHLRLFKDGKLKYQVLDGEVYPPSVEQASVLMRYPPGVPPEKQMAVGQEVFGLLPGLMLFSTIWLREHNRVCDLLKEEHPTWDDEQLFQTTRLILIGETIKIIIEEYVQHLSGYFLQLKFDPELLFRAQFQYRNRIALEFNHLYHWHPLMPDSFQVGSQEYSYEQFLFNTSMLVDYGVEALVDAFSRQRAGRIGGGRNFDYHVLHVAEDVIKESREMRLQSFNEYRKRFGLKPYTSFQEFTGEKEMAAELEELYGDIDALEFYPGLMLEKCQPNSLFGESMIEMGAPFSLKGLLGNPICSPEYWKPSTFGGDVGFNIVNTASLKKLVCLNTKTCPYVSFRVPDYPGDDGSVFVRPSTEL
Type of assay: functional.

Assay [8] deals with Voltage-dependent L-type calcium channel subunit alpha-1C (Rattus norvegicus, UniProt P22002). In kind it is functional.
Assay [9] addresses T6, Gastrin/cholecystokinin type B receptor (Homo sapiens, UniProt P32239).
T6 sequence (P32239 whole entry): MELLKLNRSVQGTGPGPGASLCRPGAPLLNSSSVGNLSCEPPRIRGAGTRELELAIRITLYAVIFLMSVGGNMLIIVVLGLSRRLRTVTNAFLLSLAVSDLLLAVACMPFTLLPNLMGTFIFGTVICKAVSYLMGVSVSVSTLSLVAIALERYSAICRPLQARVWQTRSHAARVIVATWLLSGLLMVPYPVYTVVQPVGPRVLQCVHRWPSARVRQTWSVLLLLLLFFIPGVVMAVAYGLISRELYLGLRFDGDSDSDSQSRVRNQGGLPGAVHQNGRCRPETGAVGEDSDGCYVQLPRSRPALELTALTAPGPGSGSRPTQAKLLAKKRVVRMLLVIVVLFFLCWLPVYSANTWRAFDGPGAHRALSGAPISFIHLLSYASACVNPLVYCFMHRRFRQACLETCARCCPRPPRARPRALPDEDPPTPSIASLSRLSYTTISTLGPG
Note: assay procedure not described here.

T1 sequence (P28223 whole entry): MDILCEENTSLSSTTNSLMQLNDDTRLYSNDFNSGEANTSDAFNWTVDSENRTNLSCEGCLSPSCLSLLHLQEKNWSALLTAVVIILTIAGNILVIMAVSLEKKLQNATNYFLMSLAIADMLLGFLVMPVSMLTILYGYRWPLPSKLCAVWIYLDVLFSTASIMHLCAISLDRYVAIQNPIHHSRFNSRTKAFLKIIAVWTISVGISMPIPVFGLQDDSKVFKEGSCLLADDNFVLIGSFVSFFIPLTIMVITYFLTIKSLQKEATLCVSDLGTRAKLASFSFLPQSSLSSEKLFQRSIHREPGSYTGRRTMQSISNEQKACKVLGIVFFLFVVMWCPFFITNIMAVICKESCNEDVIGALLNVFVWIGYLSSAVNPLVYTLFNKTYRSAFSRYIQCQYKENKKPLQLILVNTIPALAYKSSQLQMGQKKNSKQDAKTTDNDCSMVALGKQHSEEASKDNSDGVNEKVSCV
Chain of Voltage-dependent L-type calcium channel subunit alpha-1C (P22002 whole entry): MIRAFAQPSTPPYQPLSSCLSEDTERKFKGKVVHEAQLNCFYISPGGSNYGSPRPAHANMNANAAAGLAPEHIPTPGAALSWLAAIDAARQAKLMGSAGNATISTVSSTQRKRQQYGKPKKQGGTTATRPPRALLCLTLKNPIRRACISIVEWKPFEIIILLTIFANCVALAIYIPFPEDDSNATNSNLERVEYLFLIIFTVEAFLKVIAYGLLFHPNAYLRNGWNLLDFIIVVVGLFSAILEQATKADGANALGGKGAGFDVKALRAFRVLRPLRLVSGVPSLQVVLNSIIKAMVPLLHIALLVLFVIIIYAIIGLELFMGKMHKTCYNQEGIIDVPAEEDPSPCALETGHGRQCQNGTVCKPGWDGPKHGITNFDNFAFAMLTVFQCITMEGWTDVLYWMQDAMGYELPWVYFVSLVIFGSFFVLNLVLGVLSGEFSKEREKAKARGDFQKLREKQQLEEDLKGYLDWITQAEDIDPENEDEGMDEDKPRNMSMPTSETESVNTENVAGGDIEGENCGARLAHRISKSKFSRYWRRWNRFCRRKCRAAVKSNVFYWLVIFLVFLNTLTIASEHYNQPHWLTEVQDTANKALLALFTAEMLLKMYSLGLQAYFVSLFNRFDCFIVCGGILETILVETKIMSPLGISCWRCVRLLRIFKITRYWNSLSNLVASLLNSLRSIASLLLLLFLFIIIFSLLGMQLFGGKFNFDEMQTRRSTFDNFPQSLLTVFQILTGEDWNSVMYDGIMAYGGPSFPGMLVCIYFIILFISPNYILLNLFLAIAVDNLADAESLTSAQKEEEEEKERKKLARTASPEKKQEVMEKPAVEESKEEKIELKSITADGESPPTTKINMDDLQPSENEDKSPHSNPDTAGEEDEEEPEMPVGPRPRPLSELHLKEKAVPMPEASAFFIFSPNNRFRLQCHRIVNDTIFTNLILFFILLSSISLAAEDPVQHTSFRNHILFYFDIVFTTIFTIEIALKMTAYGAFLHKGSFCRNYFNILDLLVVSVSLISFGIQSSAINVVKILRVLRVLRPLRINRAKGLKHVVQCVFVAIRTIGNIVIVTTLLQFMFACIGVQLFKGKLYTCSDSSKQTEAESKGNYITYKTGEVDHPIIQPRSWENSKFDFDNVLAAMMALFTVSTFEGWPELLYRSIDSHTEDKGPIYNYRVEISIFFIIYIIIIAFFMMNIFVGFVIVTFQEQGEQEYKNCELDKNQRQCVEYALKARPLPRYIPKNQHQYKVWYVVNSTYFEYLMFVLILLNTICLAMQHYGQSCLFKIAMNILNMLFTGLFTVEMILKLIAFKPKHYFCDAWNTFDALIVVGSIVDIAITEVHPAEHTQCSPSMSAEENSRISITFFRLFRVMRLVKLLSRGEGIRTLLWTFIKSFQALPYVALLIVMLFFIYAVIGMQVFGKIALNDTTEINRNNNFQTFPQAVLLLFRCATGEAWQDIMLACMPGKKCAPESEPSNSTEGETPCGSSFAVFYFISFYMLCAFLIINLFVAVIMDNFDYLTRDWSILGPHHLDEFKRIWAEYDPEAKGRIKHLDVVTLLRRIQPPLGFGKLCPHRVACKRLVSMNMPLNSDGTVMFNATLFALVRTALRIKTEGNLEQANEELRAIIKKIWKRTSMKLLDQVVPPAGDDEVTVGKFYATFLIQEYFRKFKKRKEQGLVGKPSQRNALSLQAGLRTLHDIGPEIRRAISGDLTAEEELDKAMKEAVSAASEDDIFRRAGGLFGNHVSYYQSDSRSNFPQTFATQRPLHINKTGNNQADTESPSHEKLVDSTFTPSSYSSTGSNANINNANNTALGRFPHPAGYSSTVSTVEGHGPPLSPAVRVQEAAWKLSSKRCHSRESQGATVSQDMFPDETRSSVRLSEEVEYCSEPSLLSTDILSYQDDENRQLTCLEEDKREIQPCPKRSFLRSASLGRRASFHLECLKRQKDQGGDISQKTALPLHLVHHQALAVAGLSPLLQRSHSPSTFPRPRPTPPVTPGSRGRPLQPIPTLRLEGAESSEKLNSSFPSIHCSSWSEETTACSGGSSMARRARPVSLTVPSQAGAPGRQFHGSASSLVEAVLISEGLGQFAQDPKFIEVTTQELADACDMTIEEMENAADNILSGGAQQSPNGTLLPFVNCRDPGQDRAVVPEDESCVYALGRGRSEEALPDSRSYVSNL

Consider `CC(=O)O[C@H]1CC[C@@]2(C)C(=CC[C@@H]3[C@@H]2CC[C@]2(C)C(c4cccnc4)=CC[C@@H]32)C1` [ABIRATERONE ACETATE], for which the AC50 in [1], in assay [2], in assay [3], in [4], in assay [5] and in [6] was greater than 30 µM in each case. Further, the AC50 in assay [7] is greater than 30 µM.
For `O=C(O)CCCCCCCC(=O)O` [AZELAIC ACID], the AC50 in assay [1], in assay [2], in assay [3], in [4], in assay [5] and in assay [6] was greater than 10 µM throughout. Further, the AC50 in assay [8] and in [7] was greater than 10 µM each time.
With `CC1(C)O[C@@H]2C[C@H]3[C@@H]4CCC5=CC(=O)C=C[C@]5(C)[C@H]4[C@@H](O)C[C@]3(C)[C@]2(C(=O)CO)O1` [DESONIDE], the AC50 is greater than 10 µM in assay [1]; greater than 30 µM in assay [2]; 0.065 µM in assay [3]; greater than 10 µM in [5]; greater than 10 µM in assay [6]; greater than 10 µM in assay [8]. This compound came in with an AC50 in [7] greater than 10 µM.
On to `C[C@]1(O)CC[C@H]2[C@@H]3CCC4=CC(=O)CC[C@]4(C)[C@@]3(F)[C@@H](O)C[C@@]21C` [FLUOXYMESTERONE], for which the AC50 in assay [1] is greater than 10 µM; in assay [2] it was greater than 10 µM; in assay [3], 0.074 µM; in assay [5], greater than 10 µM; in [6], greater than 10 µM; in [8] it was greater than 10 µM. In addition, the AC50 in assay [7] is greater than 10 µM.
As for `CCCC(=O)O[C@]1(C(=O)CO)CC[C@H]2[C@@H]3CCC4=CC(=O)CC[C@]4(C)[C@H]3[C@@H](O)C[C@@]21C` [HYDROCORTISONE BUTYRATE], the AC50 in assay [1] is greater than 10 µM; in assay [2], greater than 10 µM; in assay [3], 0.042 µM; in assay [5], greater than 10 µM; in [6], greater than 10 µM; in assay [8] it was greater than 10 µM. Further, the AC50 in [7] is greater than 10 µM.
With `CCCc1nc(C(C)(C)O)c(C(=O)OCc2oc(=O)oc2C)n1Cc1ccc(-c2ccccc2-c2nnn[nH]2)cc1` [OLMESARTAN MEDOXOMIL], the AC50 in assay [1] was greater than 30 µM; in assay [2], 0.0009 µM; in assay [9], greater than 50 µM; in [5] it was greater than 10 µM; in assay [8], greater than 10 µM; in [7], greater than 30 µM.
Regarding `C#C[C@]1(O)CC[C@H]2[C@@H]3CCc4cc(OC5CCCC5)ccc4[C@H]3CC[C@@]21C` [QUINESTROL], the AC50 in assay [1] was greater than 10 µM; in assay [2], greater than 10 µM; in [3] it was 0.221 µM; in [5], greater than 10 µM; in assay [6], greater than 10 µM; in assay [8], greater than 10 µM. In assay [7], this compound yielded an AC50 greater than 10 µM.
On to `CCN(CC)C(=O)N[C@H]1C[C@@H]2c3cccc4[nH]cc(c34)C[C@H]2N(C)C1` [TERGURIDE], for which the AC50 in assay [1] was 0.48 µM; in [2], greater than 30 µM; in [9] it was greater than 30 µM; in assay [3] it was greater than 30 µM; in [4], greater than 30 µM; in assay [5], greater than 30 µM. For the same compound, in [7], the AC50 is greater than 30 µM.
Turning to `C/C(O)=C(\C#N)C(=O)Nc1ccc(C(F)(F)F)cc1` [TERIFLUNOMIDE], the AC50 is greater than 30 µM in assay [1]; greater than 30 µM in assay [2]; greater than 30 µM in assay [3]; greater than 30 µM in assay [4]; greater than 30 µM in assay [5]; 28 µM in assay [6]. The compound also returned an AC50 in [7] greater than 30 µM.
For `CC(=O)O[C@H]1C[C@@H]2CC[C@@H]3[C@H](CC[C@@]4(C)[C@H]3C[C@H]([N+]3(C)CCCCC3)[C@@H]4OC(C)=O)[C@@]2(C)C[C@@H]1N1CCCCC1` [VECURONIUM], the AC50 in assay [2], in assay [9], in assay [3], in assay [4], in assay [5] and in assay [8] was greater than 30 µM each time. The AC50 in assay [7] worked out at 14 µM.
